For one assay, the target named is human SPR (Homo sapiens (Human), UniProt P35270). Briefly: Evaluation Example 2: Measurement of human SPR inhibitory activity (seven concentrations, sepiapterin absorbance at 420 nm). To be noted: Evaluation Example 2, seven concentrations 0.14 nM to 100 nM, 240 minutes at room temperature, read-out: IC50. Format: biochemical. A digest of the protocol: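 Reactions ran 240 min at room temperature in 100 mM Tris-HCl pH 7.5 with 0.01% BSA. They contained tag-cleaved, E. coli-expressed full-length human SPR (diluted to 150 ng/mL), seven compound concentrations from 0.14 to 100 nM, and sepiapterin/NADPH added as a 120 μM/160 μM solution. Inhibition was calculated from sepiapterin absorbance at 420 nm.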
Sequence of human SPR (P35270 whole entry): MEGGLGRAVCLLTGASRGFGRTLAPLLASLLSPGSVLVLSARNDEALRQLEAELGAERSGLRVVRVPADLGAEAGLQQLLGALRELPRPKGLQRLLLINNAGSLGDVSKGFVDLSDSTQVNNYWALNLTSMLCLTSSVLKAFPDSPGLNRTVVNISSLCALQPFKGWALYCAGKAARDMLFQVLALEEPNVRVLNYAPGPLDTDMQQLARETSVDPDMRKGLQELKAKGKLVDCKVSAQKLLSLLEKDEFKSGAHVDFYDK
As to `CC(C)Cn1c(=O)c(C(=O)NC2CC2)c(O)n2ncc(/C=C/C(=O)N(C)C3CCOCC3)c12` [compound 523, (E)-N-Cyclopropyl-7-hydroxy-4-isobutyl-3-(3-(methyl(tetrahydro-2H-pyran-4-yl)amino)-3-oxoprop-1-en-1-yl)-5-oxo-4,5-dihydropyrazolo[1,5-a]pyrimidine-6-carboxamide], the IC50 is 0.71 nM. Consider `CC(C)(C)Cn1c(=O)c(C(=O)NC2CC2)c(O)n2nc(-c3n[nH]c4ncccc34)cc12` [Synthesis Example 306], for which the IC50 came to 9.43 nM. As to `CC(C)Cn1c(=O)c(C(=O)NC2CC2)c(O)n2ncc(C(=O)Nc3ccccn3)c12` [Synthesis Example 225, N6-Cyclopropyl-7-hydroxy-4-isobutyl-5-oxo-N3-(pyridin-2-yl)-4,5-dihydropyrazolo[1,5-a]pyrimidine-3,6-dicarboxamide], the IC50 was 1.84 nM.

For `CC(C)Cn1c(=O)c(C(=O)NC2CC2)c(O)n2ncc(/C=C/C(=O)N3CCOCC34CC4)c12` [compound 541, (E)-N-Cyclopropyl-7-hydroxy-4-isobutyl-5-oxo-3-(3-oxo-3-(7-oxa-4-azaspiro[2.5]octan-4-yl)prop-1-en-1-yl)-4,5-dihydropyrazolo[1,5-a]pyrimidine-6-carboxamide], the IC50 is 0.82 nM.

Take `CNc1nn2c(O)c(C(=O)NC3CC3)c(=O)n(CC(C)C)c2c1/C=C/C(=O)N1CCCC1` [Synthesis Example 427, (E)-N-Cyclopropyl-7-hydroxy-4-isobutyl-2-(methylamino)-5-oxo-3-(3-oxo-3-(pyrrolidin-1-yl)prop-1-en-1-yl)-4,5-dihydropyrazolo[1,5-a]pyrimidine-6-carboxamide]: the IC50 amounted to 0.95 nM. In the case of `CC(C)Cn1c(=O)c(C(=O)NC2CC2)c(O)n2nc(O)cc12` [Synthesis Example 318, N-Cyclopropyl-2,7-dihydroxy-4-isobutyl-5-oxo-4,5-dihydropyrazolo[1,5-a]pyrimidine-6-carboxamide], the IC50 came out at 1.43 nM. Same read-out and setting: with `CC(C)Cn1c(=O)c(C(=O)NC2CC2)c(O)n2ncc(/C=C/c3cscn3)c12` [Synthesis Example 240, (E)-N-Cyclopropyl-7-hydroxy-4-isobutyl-5-oxo-3-(2-(thiazol-4-yl)vinyl)-4,5-dihydropyrazolo[1,5-a]pyrimidine-6-carboxamide] the figure was 1.84 nM; with `Cc1nn2c(O)c(C(=O)NC3CC3)c(=O)n(CC(C)C)c2c1/C=C/C(=O)N1CCN(C)CC1` [compound 574, (E)-N-Cyclopropyl-7-hydroxy-4-isobutyl-2-methyl-3-(3-(4-methylpiperazin-1-yl)-3-oxoprop-1-en-1-yl)-5-oxo-4,5-dihydropyrazolo[1,5-a]pyrimidine-6-carboxamide], 0.79 nM; with `Cc1nn2c(O)c(C(=O)NC3CC3)c(=O)n(CC(C)C)c2c1/C=C/C(=O)N1CCO[C@@H](C)C1` [Synthesis Example 680, (S,E)-N-Cyclopropyl-7-hydroxy-4-isobutyl-2-methyl-3-(3-(2-methylmorpholino)-3-oxoprop-1-en-1-yl)-5-oxo-4,5-dihydropyrazolo[1,5-a]pyrimidine-6-carboxamide], 0.81 nM.

The assay is the same for the next values; noted with them: sepiapterin absorbance, Table 41, read-out: concentration at 50% inhibition of human SPR (IC50).
On to `CC(C)Cn1c(=O)c(C(=O)NC2CC2)c(O)n2ncc(/C=C/C(=O)N3C[C@H]4COC[C@H]4C3)c12` [Synthesis Example 708, N-Cyclopropyl-7-hydroxy-4-isobutyl-5-oxo-3-((E)-3-oxo-3-((3aR,6aS)-tetrahydro-1H-furo[3,4-c]pyrrol-5(3H)-yl)prop-1-en-1-yl)-4,5-dihydropyrazolo[1,5-a]pyrimidine-6-carboxamide], for which the IC50 is 0.74 nM. Take `Cc1nn2c(O)c(C(=O)NC3CC3)c(=O)n(CC(C)C)c2c1/C=C/C(=O)N1CCN(CC2CC(F)(F)C2)C[C@@H]1C` [Synthesis Example 703, (S,E)-N-Cyclopropyl-3-(3-(4-((3,3-difluorocyclobutyl)methyl)-2-methylpiperazin-1-yl)-3-oxoprop-1-en-1-yl)-7-hydroxy-4-isobutyl-2-methyl-5-oxo-4,5-dihydropyrazolo[1,5-a]pyrimidine-6-carboxamide]: the IC50 worked out at 1.44 nM.
